From ChEMBL document CHEMBL1138112, “Indoloprodigiosins from the C-10 bipyrrolic precursor: new antiproliferative prodigiosin analogs” (Bioorg Med Chem Lett, 2006)

Tests used:
Assay type in all cases: functional, cell-based
Conditions in all cases: Homo sapiens
HT-29 = assay: Antiproliferative activity against HT29 cell line by MTS assay
DLD-1 = assay: Antiproliferative activity against DLD1 cell line by MTS assay
MDA-MB-231 = assay: Antiproliferative activity against MDA-MB-231 cell line by MTS assay
NCI-H460 = assay: Antiproliferative activity against NCI-H460 cell line by MTS assay
A549 = assay: Antiproliferative activity against A549 cell line by MTS assay

IC50 (HT-29) [µM]	IC50 (DLD-1) [µM]	IC50 (MDA-MB-231) [µM]	IC50 (NCI-H460) [µM]	IC50 (A549) [µM]	SMILES
36.2	63.2	47.4	21.6	54.6	COc1cc(-c2ccc[nH]2)[nH]c1/C=C1\C(C)=Nc2ccccc21
12.3	16.7	23.2	10.8	14.3	COc1cc(-c2ccc[nH]2)[nH]c1/C=C1\C(C)=Nc2ccc(C)cc21
0.781	0.446	1.38	0.23	0.487	COc1cc(-c2ccc[nH]2)[nH]c1/C=C1/C=C2CCCCC2=N1
13.5	7.74	12.8	3.45	6.45	COC1=CC(c2ccc[nH]2)=N/C1=C\c1[nH]c(-c2ccc[nH]2)cc1OC
4.68	6.02	9.35	4.06	6.61	COc1cc(-c2ccc[nH]2)[nH]c1/C=C1\C=Nc2ccccc21

SMILES	IC50 (HT-29) [µM]	IC50 (DLD-1) [µM]	IC50 (MDA-MB-231) [µM]	IC50 (NCI-H460) [µM]	IC50 (A549) [µM]
CCC1CCCCCCCCC2=N/C(=C\c3[nH]c(-c4ccc[nH]4)cc3OC)C1=C2 (stereo not given) [METACYCLOPRODIGININE]	1.7	1.78	5.21	0.33	1.25
CCCCCC1=C/C(=C/c2[nH]c(-c3ccc[nH]3)cc2OC)N=C1C [PRODIGIOSIN]	0.173	0.079	0.213	0.032	0.077
